Measured values: article PMC8392292 (Biomedicines, 2021)
Counter-ions that a name gives are not always drawn. Like-named read-outs stand apart in the source and are kept apart here.

What was measured:
SARS-CoV-2 RdRp = SARS-CoV-2 RdRp (Severe acute respiratory syndrome coronavirus 2, UniProt P0DTD1); test: cell-based; format: cell-based; settings: for Effect on SARS-CoV-2 RdRp activity: without nsp7 and nsp8; for inhibition at 100 µM: read-out: Inhibition % of RdRp Activity at Max. Dose; for FLuc activity (internal control): compound at the indicated concentrations
[1] = tested on: SARS-CoV-2 RdRp with nsp7 and nsp8; format: cell-based; settings: nsp7 + nsp8 or nsp8-IRES-nsp7 plasmids co-transfected, HEK293T
SARS-CoV-2 = settings: cited from earlier work
[2] = […], mean ± standard error of the mean, read-out: IC50 of SARS-CoV-2 RdRp activity
[3] = representative experiment, non-linear regression graph, HEK293T, 15 h, read-out: IC50 of SARS-CoV-2 RdRp activity in the figure
[4] = IC50 of SARS-CoV-2 RdRp activity
[5] = HEK-293T, max. dose 100 μM, HEK293T, 15 h

Row | Structure (SMILES) | IC50 (SARS-CoV-2 RdRp; [2]) [µM] | IC50 (SARS-CoV-2 RdRp; [3]) [µM] | inhibition at 100 µM (SARS-CoV-2 RdRp; [5]) [%] | other results
1 | CC(C)(C)C(=O)OCOP(=O)(COCCn1cnc2c(N)ncnc21)OCOC(=O)C(C)(C)C [Adefovir Dipivoxil, adefovir dipivoxil] | 3.78 ± 0.866 | 3.92 | – | –
2 | COc1ccc2cc1Oc1ccc(cc1)C[C@H]1c3c(cc4c(c3Oc3cc5c(cc3OC)CCN(C)[C@@H]5C2)OCO4)CCN1C [Cepharanthine, cepharanthine] | – | – | – | inhibition at 10 µM (SARS-CoV-2 RdRp; HEK-293T, max. dose 10 μM, HEK293T, 15 h): 5.84%; IC50 (SARS-CoV-2 RdRp; [4]): > 10 µM; Effect on SARS-CoV-2 RdRp activity (SARS-CoV-2 RdRp; HEK293T): did not affect; Effect on SARS-CoV-2 RdRp activity (SARS-CoV-2 RdRp; HEK293T, listed as cepharanthine): did not display any inhibitory effect; Effect on SARS-CoV-2 RdRp activity with nsp7 and nsp8 [1]: did not affect; Effect on SARS-CoV-2 RdRp activity with nsp7 and nsp8 ([1]; listed as cepharanthine): did not display any inhibitory effect
3 | Nc1nc(=O)n([C@@H]2CS[C@H](CO)O2)cc1F [Emtricitabine, emtricitabine] | – | – | – | inhibition at 100 µM (SARS-CoV-2 RdRp; HEK-293T): 88.2%; IC50 (SARS-CoV-2 RdRp; [4]): 15.4 ± 3.6 µM; IC50 (SARS-CoV-2 RdRp; IC50 of SARS-CoV-2 RdRp activity in the figure): 13.8 µM
4 | C=C1[C@H](CO)[C@@H](O)C[C@@H]1n1cnc2c(=O)[nH]c(N)nc21 [Entecavir Hydrate, entecavir hydrate] | – | – | 83.1 | –
5 | Cl.O[C@H]1[C@H]2c3cc4c(cc3CN3CCC(=C[C@@H]1O)[C@H]23)OCO4 [Lycorine, lycorine hydrochloride] | 1.47 ± 0.033 | 1.34 | – | FLuc activity (internal control) (SARS-CoV-2 RdRp; HEK293T): remained unchanged; IC50 (SARS-CoV-2): 0.878 ± 0.022 µM
6 | N=C(N)/N=C(\N)N1CCOCC1 [Moroxydine, moroxydine HCl] | 48.9 ± 14.4 | 37.1 | 76.5 | –
7 | CCC(CC)COC(=O)[C@H](C)N[P@](=O)(OC[C@H]1O[C@@](C#N)(c2ccc3c(N)ncnn23)[C@H](O)[C@@H]1O)Oc1ccccc1 [Remdesivir] | – | – | – | FLuc activity (internal control) (SARS-CoV-2 RdRp; HEK293T): maintained; inhibition at 6.7 µM (SARS-CoV-2 RdRp; HEK-293T, max. dose 6.7 μM, HEK293T, 15 h): 71%
8 | CO[C@H]1/C=C/O[C@@]2(C)Oc3c(C)c(O)c4c(O)c(c(/C=N/N5CCN(C)CC5)c(O)c4c3C2=O)NC(=O)/C(C)=C\C=C\[C@H](C)[C@H](O)[C@@H](C)[C@@H](O)[C@@H](C)[C@H](OC(C)=O)[C@@H]1C [Rifampin, rifampin] | 49.4 ± 4.02 | 30.3 | – | –
9 | Cc1cn([C@@H]2C[C@@H](O)[C@H](CO)O2)c(=O)[nH]c1=O [Telbivudine, telbivudine] | 45.9 ± 3.86 | 39.6 | 76.9 | –
